{
  "source": "patent US20240374691A1",
  "about": "“GLP-1R AGONISTS FOR USE IN A TREATMENT OF NEUROLOGIAL IMPAIRMENT ASSOCIATED WITH VIRAL INFECTION” (Neuraly, Inc., priority 2021, published 2024)",
  "key": {"[1]": {"conditions": "in vivo; cited from earlier work"}, "primary microglia": {"system": "primary microglia", "experiment": "Pro-inflammatory cytokine production by primary microglia in vitro (ELISA)", "assay_type": "cell-based", "conditions": "NLY01 vs PBS", "procedure": "Production of pro-inflammatory cytokines is a marker for microglial activation. Chronic microglial activation is pathogenic. […] Cytokine levels were determined using ELISA. Bars indicate mean±s.e.m. (n=3)."}, "activated microglia": {"system": "activated microglia", "experiment": "Microglial activation in vivo after intrastriatal α-synuclein PFF injection", "design": "species or system C57BL6 mice", "conditions": "3 mg/kg s.c. twice a week for 5 months, PFF-injected mice, FIGS. 2A-2B", "source_text": "Mice were perfused and brain tissues collected to allow analysis of activated microglia and cytokine levels following treatment."}, "[2]": {"system": "Tg models of Alzheimer's Disease", "experiment": "Tg models of Alzheimer's Disease (AD)", "assay_type": "in vivo"}, "[3]": {"conditions": "in vivo"}, "[4]": {"conditions": "in vivo", "remark": "listed apart in the source"}},
  "note": "Where two headings read alike, the source gives them in different places.",
  "data": [
    {"substance": "Albiglutide: dipeptidyl peptidase-4-resistant glucagon-like peptide-1 dimer fused to human albumin", "values": [
      {"measurement": "half-life", "setting": "[1]", "result": "four to seven"}
    ]},
    {"substance": "NLY01: long-acting PEGylated form of exenatide; PEG 50,000 Da site-specifically conjugated to exenatide peptide", "values": [
      {"measurement": "cytokine production by microglia", "setting": "primary microglia; absence of activation", "result": "not significantly affected"},
      {"measurement": "pro-inflammatory cytokine levels (C1q, IL1α, TNF-α, IL1β)", "setting": "primary microglia; activated microglia, FIGS. 1A-1D", "result": "substantially reduced"},
      {"measurement": "Iba-1+ activated microglia in the brain (Iba-1 intensity, microglia density)", "setting": "activated microglia", "result": "reduced"},
      {"measurement": "amyloid aggregation and tau formation", "setting": "[2]", "result": "reduced"},
      {"measurement": "memory impairment", "setting": "[2]", "result": "ameliorated"},
      {"measurement": "microglia activation and population of reactive astrocytes in the AD brain", "setting": "[2]", "result": "significantly inhibited"},
      {"measurement": "half-life", "setting": "[3]", "result": 88, "unit": "h"},
      {"measurement": "blood-brain barrier traversal", "setting": "[4]", "result": "traverses the blood-brain barrier"}
    ]}
  ]
}
